A word on the melting point: it is the temperature of the solid-liquid transition.

The source of these data is US7196085B2, “Phthalazinone derivatives” (KuDOS Pharmaceuticals Limited, priority 2002, dated 2007).

For the molecule `CCCCC/C=C/CC1CC(=O)N(c2cc(Cc3n[nH]c(=O)c4ccccc34)ccc2F)C1=O` (stereo not shown) [Example 28, 1-[2-fluoro-5-(4-oxo-3,4-dihydrophthalazin-1-ylmethyl)phenyl]-3-oct-2-enylpyrrolidine-2,5-dione], the melting point was in the range of 138 to 141 °C.

In turn, `CCC/C=C/CC1CC(=O)N(c2cc(Cc3n[nH]c(=O)c4ccccc34)ccc2F)C1=O` (stereo not shown) [Example 29, 1-[2-fluoro-5-(4-oxo-3,4-dihydrophthalazin-1-ylmethyl)phenyl]-3-hex-2-enylpyrrolidine-2,5-dione] came in with a melting point of 146 to 149 °C.

The molecule `CCCCCC/C=C/CC1CC(=O)N(c2cc(Cc3n[nH]c(=O)c4ccccc34)ccc2F)C1=O` (stereo not shown) [Example 30, 1-[2-Fluoro-5-(4-oxo-3,4-dihydrophthalazin-1-ylmethyl)phenyl]-3-non-2-enylpyrrolidine-2,5-dione] had a melting point of 146 to 149 °C.

`O=C1CC2(CCCC2)C(=O)N1c1cc(Cc2n[nH]c(=O)c3ccccc23)ccc1F` [Example 32, 2-[2-fluoro-5-(4-oxo-3,4-dihydrophthalazin-1-ylmethyl)phenyl]-2-azaspiro[4.4]nonane-1,3-dione] registered a melting point of 215 to 220 °C.

Take `O=C(N[C@H]1CC(=O)N(c2cc(Cc3n[nH]c(=O)c4ccccc34)ccc2F)C1=O)OCc1ccccc1` [Example 35, (S)-3-benzyloxycarbonylamino-1-[2-fluoro-5-(4-oxo-3,4-dihydrophthalazin-1-ylmethyl)phenyl]pyrrolidine-2,5-dione]: the melting point was in the range of 121 to 127 °C.

As to `O=C1CC(c2ccccc2)C(=O)N1c1cc(Cc2n[nH]c(=O)c3ccccc23)ccc1Cl` (stereo not shown) [Example 39, 1-[2-chloro-5-(4-oxo-3,4-dihydrophalazin-1-ylmethyl)phenyl]-3-phenylpyrrolidine-2,5-dione], the melting point lay within 131 to 135 °C.

Molecule `O=C1C2CC2C(=O)N1c1cc(Cc2n[nH]c(=O)c3ccccc23)ccc1Cl` (stereo not shown) [Example 41, 3-[2-chloro-5-(4-oxo-3,4-dihydrophthalazin-1-ylmethyl)phenyl]-3-azabicyclo[3.1.0]hexane-2,4-dione] yielded a melting point of 229 to 230 °C.
